“Also recorded” adds a separate entry of the source.
Tests used:
[1] = system: HL-60; test: Apoptosis by Annexin V / propidium iodide flow cytometry in HL-60; assay type: cell-based; details: 96 hours; for apoptotic cells: combination with azacitidine vs single agent
Description: (§1) Briefly, the AML cell lines HL-60 (FIGS. 4A and 4D), Kasumi-1 (FIGS. 4B and 4E) and NB4 (FIGS. 4C and 4F) were treated with the indicated concentrations of compounds. In FIGS. 4A-C, surface levels of myeloid differentiation marker CD11b were determined by FACS at 72 hours post-treatment. […] In FIGS. 4D-F, apoptosis was assessed by flow cytometry by measuring Annexin V binding and cellular permeability to propidium iodide at 96 hours post-treatment. The relative fraction of cells that were alive, in early apoptosis, in late apoptosis, or dead was then determined.
(§2) FIGS. 5A-F show the combination of HDAC inhibitors and azacitidine in the HL-60 cell line. Briefly, cells were treated with DMSO, Compound B, Compound A, or Compound E as a single agent or in combination with azacitidine for 96 hours. Surface levels of CD11b (FIGS. 5A, 5C, 5E) and apoptosis (FIGS. 5B, 5D, 5F) was assessed by flow cytometry, as in FIG. 4.

[2] = system: HL-60; test: Surface CD11b by FACS in HL-60; assay type: cell-based; details: combination with azacitidine vs single agent, 96 hours
Description: as §1, §2

[3] = system: MV4-11; test: Apoptosis by Annexin V / propidium iodide flow cytometry in MV4-11; assay type: cell-based; details: 96 h; for induction of apoptosis: combination with azacitidine; for apoptosis relative to control cells: single agent
Description: (§3) The distribution of cells among G0/G1 phase, G2/M phase, S phase and subG1 phase was determined. […] The relative fraction of cells that were live, in early apoptosis, in late apoptosis, or dead was then determined.
(§4) MV4-11 cells were treated with Compound E or with Compound A or with Compound B as single agent or in combination with azacitidine at indicated doses. FIGS. 12A, 12C, and 12E show surface levels of CD11b determined by FACS at 72 h post-treatment. FIGS. 12B, 12D, and 12F show assessment of apoptosis by FACS (as in, e.g., FIG. 9C) at 96 h post-treatment.
(§5) FIG. 17. […] (A) Indicated AML cell lines were exposed to increasing concentrations of Compound J to confirm their sensitivity to HDAC1/2 inhibition. (B-D) MV4-11 cells were treated with indicated concentrations of compounds. (B) Surface levels of myeloid differentiation marker CD11b were determined by FACS at 72 h post-treatment. […] (C) Cell cycle was assessed by flow cytometry after incorporation of EdU and staining with Far Red at 72 h post-treatment. The distribution of cells among G0/G1 phase, G2/M phase, S phase and subG1 phase was determined. […] (D) Apoptosis was assessed by flow cytometry via measuring Annexin V binding and cellular permeability to propidium iodide at 96 h post-treatment. The relative fraction of cells that were live, in early apoptosis, in late apoptosis or dead was then determined.

[4] = system: HL-60, Kasumi-1 and NB4; test: Surface CD11b by FACS in three AML cell lines; assay type: cell-based; details: single agent; 72 hours; all three cell lines
Description: as §1
(§6) FIGS. 10A-F show the treatment of the following AML cell lines: Kasumi-1 (FIGS. 10A and 10B), HL-60 (FIGS. 10C and 10D) and NB4 (FIGS. 10E and 10F), with indicated doses of compounds. FIGS. 10A, 10C, and 10E show surface levels of myeloid differentiation marker CD11b determined by FACS at 72 h post-treatment. […] FIGS. 10B, 10D, and 10F show the assessment of apoptosis by FACS (see, e.g., FIG. 9C).

[5] = system: HDAC1, HDAC2, HDAC3 and HDAC6; test: HDAC selectivity of the inhibitor panel; assay type: biochemical; details: HDAC isoform(s) the inhibitor is selective for
Description: Compounds for testing are diluted in DMSO to 50 fold the final concentration and a ten point three fold dilution series is made. The compounds are diluted in assay buffer (50 mM HEPES, pH 7.4, 100 mM Kill, 0.001% Tween-20, 0.05% BASE, 20 μM TEC) to 6 fold their final concentration. The HDAC enzymes (purchased from BPS Biosciences) are diluted to 1.5 fold their final concentration in assay buffer. The dipeptide substrate and trypsin at 0.05 μM final concentration are diluted in assay buffer at 6 fold their final concentration. The final enzyme concentrations to use in these assays are 3.3 ng/ml (HDAC1), 0.2 ng/ml (HDAC2), 0.08 ng/ml (HDAC3) and 2 ng/ml (HDAC6). The final substrate concentrations to use are 16 μM (HDAC1), 10 μM (HDAC2), 17 μM (HDAC3) and 14 μM (HDAC6). Five μ1 of compound and 20 μl of enzyme are added to wells of a black, opaque 384 well plate in duplicate. Enzyme and compound are incubated together at room temperature for 10 min. Five μ1 of substrate is added to each well, the plate is shaken for 60 seconds and placed into a Victor 2 microliter plate reader. The development of fluorescence is monitored for 60 min. and the linear rate of the reaction is calculated. The IC50 is determined using Graph Pad Prism by a four parameter curve fit.
The following HDAC inhibitors were used to evaluate the relationship between HDAC selectivity and the viability of AML cell lines upon exposure to the HDAC inhibitor: […]

[6] = system: MV4-11; test: Surface CD11b by FACS in MV4-11; assay type: cell-based; details: 72 h
Description: as §3, §4, §5

[7] = system: HL-60, Kasumi-1 and NB4; test: Apoptosis by Annexin V / propidium iodide flow cytometry in three AML cell lines; assay type: cell-based; details: single agent; 96 hours; HL-60, Kasumi-1, NB4
Description: as §1, §6

[8] = system: NB4; test: Apoptosis by Annexin V / propidium iodide flow cytometry in NB4; assay type: cell-based; details: 96 hours; for apoptotic cells: combination with azacitidine vs single agent
Description: as §1
FIGS. 7A-F show the combination of HDAC inhibitors and azacitidine in the NB4 cell line. Briefly, cells were treated with DMSO, Compound B, Compound A, or Compound E as single agent or in combination with azacitidine at the indicated concentrations. Surface levels of CD11b were determined 72 hours post-treatment (FIGS. 7A, 7C, 7E), and apoptosis was assessed 96 hours post-treatment (FIGS. 7B, 7D, 7F).

[9] = system: Kasumi-1; test: Apoptosis by Annexin V / propidium iodide flow cytometry in Kasumi-1; assay type: cell-based; details: 96 hours; for apoptotic cells: combination with azacitidine vs single agent
Description: as §1
(§7) Briefly, cells were treated with DMSO, Compound B, Compound A, or Compound E as a single agent or in combination with azacitidine at the indicated concentrations. Surface levels of CD11b were determined 72 hours post-treatment (FIGS. 6A, 6C, 6E), and apoptosis was assessed 96 hours post-treatment (FIGS. 6B, 6D, 6F).

[10] = system: Kasumi-1; test: Surface CD11b by FACS in Kasumi-1; assay type: cell-based; details: combination with azacitidine vs single agent, 72 hours
Description: as §1, §7

| Structure (SMILES) | apoptotic cells [1] | CD11b positive cells [2] | induction of apoptosis [3] | apoptosis relative to control cells [3] | percentage of CD11b positive cells [4] | Selectivity [5] | percentage of CD11b positive cells ([6]; combination with azacitidine) | percentage of CD11b positive cells ([6]; single agent) | apoptosis relative to control cells [7] | apoptotic cells [8] | apoptotic cells [9] | CD11b positive cells [10] | apoptosis ([1]; single agent) | apoptosis ([8]; single agent) | apoptosis ([9]; single agent) |
| --- | --- | --- | --- | --- | --- | --- | --- | --- | --- | --- | --- | --- | --- | --- | --- |
| O=C(CCCCCCNC(=O)c1cnc(N(c2ccccc2)c2ccccc2)nc1)NO [Compound A, 2-(diphenylamino)-N-(7-(hydroxyamino)-7-oxoheptyl)pyrimidine-5-carboxamide] | synergistic increases | synergistic increases of CD11b positive cells | enhanced induction of apoptosis greater than either single agent | increase in apoptosis relative to control cells | increased the percentage of CD11b positive cells | HDAC6 (1/2/3) | further increase of percentage of CD11b positive cells | increased the percentage of CD11b positive cells | increase in apoptosis relative to control cells; also recorded: increased apoptosis relative to control cells | synergistic increases of apoptotic cells | synergistic increases | synergistic increases of CD11b positive cells | – | – | – |
| O=C(CCCCCCNC(=O)c1cnc(N(c2ccccc2)c2ccccc2Cl)nc1)NO [Compound B, 2-((2-chlorophenyl)(phenyl)amino)-N-(7-(hydroxyamino)-7-oxoheptyl)pyrimidine-5-carboxamide] | synergistic increases | synergistic increases of CD11b positive cells | enhanced induction of apoptosis greater than either single agent | – | increased the percentage of CD11b positive cells | HDAC6 (1/2/3) | further increase of percentage of CD11b positive cells | – | increase in apoptosis relative to control cells | synergistic increases of apoptotic cells | synergistic increases | synergistic increases of CD11b positive cells | – | – | – |
| Nc1ccc(-c2cccs2)cc1NC(=O)c1ccc2c(c1)cc(C1CC1)n2CCN1CCOCC1 [Compound E, N-(2-amino-5-(thiophen-2-yl)phenyl)-2-cyclopropyl-1-(2-morpholinoethyl)-1H-indole-5-carboxamide] | synergistic increases | synergistic increases of CD11b positive cells | enhanced induction of apoptosis greater than either single agent | increase in apoptosis relative to control cells | increased the percentage of CD11b positive cells | selective for HDAC1/2 | further increase of percentage of CD11b positive cells | increased the percentage of CD11b positive cells | increased apoptosis relative to control cells | synergistic increases of apoptotic cells | synergistic increases | synergistic increases of CD11b positive cells | induced apoptosis | minimal effects | induced apoptosis |
